35 compounds from patent publication US10633350B2, “Diphenyl derivatives and uses thereof” (NOVARTIS AG, priority 2017, dated 2020) can be followed below.

One may read the AC50 as the concentration giving half of the maximal activity seen.

Test [1] deals with FoxO3a. As to the kind of experiment: FoxO3a inhibition assay (GFP-FoxO3a nuclear to cytoplasmic translocation) in U2OS GFP-FoxO3a H212R reporter cells. The note with it: Homo sapiens, 0.5 h, serum starved overnight, 30 minutes compound treatment, ratio of nuclear to cytosolic GFP intensity, AC50 = concentration that results in 50% activation or inhibition, read-out: FoxO AC50. It is filed as cell-based. In short, it runs like this:
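Serum-starved (overnight) cells treated with compounds at various doses for 30 min, then fixed in 4% paraformaldehyde and stained overnight at 4 °C for pAkt S473 with Hoechst nuclear counterstain; high-content imaging. FoxO3a readout: nuclear/cytosolic GFP ratio (%); Akt readout: total cellular pAkt intensity (%); DMSO = 0% activity.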

In test [2] the test system is Akt. As to the kind of experiment: Akt activation assay (Phospho-AKT (Ser473) antibody staining) in U2OS GFP-FoxO3a H212R reporter cells. The test is classed as cell-based. Conditions: Homo sapiens, 0.5 h, serum starved overnight, 30 minutes compound treatment, total cellular intensity of Phospho-Akt (Ser473) antibody staining, AC50 = concentration that results in 50% activation or inhibition. The protocol:
Phosphorylation of Akt on S473 and FoxO3a nuclear to cytoplasmic translocation were used as readouts of PI3K/Akt/mTOR pathway activation downstream of growth factor signaling.
Reporter cell line. U2OS GFP-FoxO3a H212R reporter cell line was established by transducing U2OS cells with the retroviral plasmid pLEGFP-C1 containing FoxO3a H212R transgene and selecting for G418 resistant clones.
Reporter assay. U2OS GFP-FoxO3a H212R cells were plated in 384-well plates at 4000 cells per well in 30 microliters of McCoy's 5A medium containing 10% FBS. On day 1 the cells were washed with serum free medium and serum starved overnight. On day 2 the cells were treated with different doses of the compounds for 30 minutes, fixed with 4% Paraformaldehyde for 1 hour and stained with Phospho-AKT (Ser473) antibody (Cell Signaling Technology, catalog #4060) overnight at 4° C. After nuclei staining with Hoechst 33342 (Life Technologies, catalog # H3570) the plates were imaged with InCell 2000 (GE Healthcare Bio-Sciences). FoxO3a inhibition activity is calculated as the ratio of nuclear to cytosolic GFP intensity in percent. Akt activation is measured as the total cellular intensity of Phospho-Akt antibody staining in percent. DMSO control is set as 0% activity.

As for `Cc1cc(C(N)=O)nn1-c1ccc(C(C)(C)c2ccc(-c3ccc(C4(CN)COC4)cc3)cc2)cc1` [Example 11, 1-(4-(2-(4′-(3-(aminomethyl)oxetan-3-yl)-[1,1′-biphenyl]-4-yl)propan-2-yl)phenyl)-5-methyl-1H-pyrazole-3-carboxamide], the half-maximal activity concentration (AC50) was 607 nM in test [1] and 1190 nM in test [2].

Turning to `Cc1cc(C(N)=O)nn1-c1ccc(C(C)(C)c2ccc(-c3ccc(C4(N)COC4)cc3)cc2)cc1` [Example 12, 1-(4-(2-(4′-(3-aminooxetan-3-yl)-[1,1′-biphenyl]-4-yl)propan-2-yl)phenyl)-5-methyl-1H-pyrazole-3-carboxamide], the AC50 stood at 93 nM in test [1] and 283 nM in test [2].

On to `Cc1nc(C(N)=O)nn1-c1ccc(C(C)(C)c2ccc(-c3ccc(CN4CCCC4)cc3)cc2)cc1` [Example 13-1, 5-methyl-1-(4-(2-(4′-(pyrrolidin-1-ylmethyl)-[1,1′-biphenyl]-4-yl)propan-2-yl)phenyl)-1H-1,2,4-triazole-3-carboxamide], for which the results for the AC50 in test [1] and in test [2] were 128 nM and 375 nM, respectively.

On to `Cc1nc(C(N)=O)nn1-c1ccc(C(C)(C)c2ccc(-c3ccc(S(=O)(=O)N(C)C)cc3)cc2)cc1` [Example 13-2], for which the figures for the AC50 in test [1] and in test [2] were 112 nM and 252 nM, respectively.

For the compound `Cc1nc(C(N)=O)nn1-c1ccc(C(C)(C)c2ccc(-c3ccc4ncccc4c3)cc2)cc1` [Example 13-3], the results for the AC50 in test [1] and in test [2] were 311 nM and 943 nM, respectively.

Take `Cc1nc(C(N)=O)nn1-c1ccc(C(C)(C)c2ccc(-c3ccc4nccnc4c3)cc2)cc1` [Example 13-4]: the results for the AC50 in test [1] and in test [2] were 429 nM and 1240 nM, respectively.

For the compound `Cc1nc(C(N)=O)nn1-c1ccc(C(C)(C)c2ccc(-c3ccc4ccncc4c3)cc2)cc1` [Example 13-5], the concentration at half-maximal activity (AC50) worked out at 147 nM in test [1] and 446 nM in test [2].

As for `Cc1nc(C(N)=O)nn1-c1ccc(C(C)(C)c2ccc(-c3ccc4scnc4c3)cc2)cc1` [Example 13-7], the values for the AC50 in test [1] and in test [2] were 159 nM and 504 nM, respectively.

As to `Cc1nc(C(N)=O)nn1-c1ccc(C(C)(C)c2ccc(-c3cnn(C)c3)cc2)cc1` [Example 13-8], the AC50 in test [1] turned out to be 664 nM; in test [2] it was 1750 nM.

Turning to `Cc1cc(-c2ccc(C(C)(C)c3ccc(-n4nc(C(N)=O)nc4C)cc3)cc2)ccn1` [Example 13-9], the AC50 in test [1] amounted to 183 nM; in test [2], 714 nM.

For the compound `Cc1nc(C(N)=O)nn1-c1ccc(C(C)(C)c2ccc(-c3ccc(C#N)nc3)cc2)cc1` [Example 13-10], the AC50 in test [1] stood at 489 nM; in test [2], 1180 nM.

Regarding `Cc1nc(C(N)=O)nn1-c1ccc(C(C)(C)c2ccc(-c3cnc4c(c3)OCCN4C)cc2)cc1` [Example 13-11], the AC50 amounted to 416 nM in test [1] and 1000 nM in test [2].

On to `Cc1nc(C(N)=O)nn1-c1ccc(C(C)(C)c2ccc(-c3ccc(CN4CCOCC4)cc3)cc2)cc1` [Example 13-12], for which the AC50 in test [1] came to 64 nM; in test [2], 261 nM.

As to `Cc1nnc(-c2cccc(-c3ccc(C(C)(C)c4ccc(-n5nc(C(N)=O)nc5C)cc4)cc3)c2)o1` [Example 13-13], the AC50 worked out at 179 nM in test [1] and 506 nM in test [2].

For the compound `Cc1nc(C(N)=O)nn1-c1ccc(C(C)(C)c2ccc(-c3ccc(N4CCCC4)nc3)cc2)cc1` [Example 13-14], the figures for the AC50 in test [1] and in test [2] were 386 nM and 1170 nM, respectively.

With `Cc1nc(C(N)=O)nn1-c1ccc(C(C)(C)c2ccc(-c3ccc(N4CCOCC4)nc3)cc2)cc1` [Example 13-15], the AC50 in test [1] was 114 nM; in test [2] it was 493 nM.

For `Cc1nc(C(N)=O)nn1-c1ccc(C(C)(C)c2ccc(-c3ccsc3)cc2)cc1` [Example 13-16], the AC50 in test [1] worked out at 377 nM; in test [2], 926 nM.

As for `Cc1nc(C(N)=O)nn1-c1ccc(C(C)(C)c2ccc(-c3ccc(C(N)C(F)(F)F)cc3)cc2)cc1` (stereo not shown) [Example 14, 1-(4-(2-(4′-(1-amino-2,2,2-trifluoroethyl)-[1,1′-biphenyl]-4-yl)propan-2-yl)phenyl)-5-methyl-1H-1,2,4-triazole-3-carboxamide], the AC50 in test [1] amounted to 113 nM; in test [2] it was 180 nM.

In the case of `Cc1nc(C(N)=O)nn1-c1ccc(Cc2ccc(-c3ccc(CN4CCN(C)CC4)cc3)cc2)cc1` [Example 15-1, 5-methyl-1-(4-((4′-((4-methylpiperazin-1-yl)methyl)-[1,1′-biphenyl]-4-yl)methyl)phenyl)-1H-1,2,4-triazole-3-carboxamide], the AC50 in test [1] stood at 69 nM; in test [2], 166 nM.

In the case of `Cc1nc(C(N)=O)nn1-c1ccc(Cc2ccc(-c3cccnc3)cc2)cc1` [Example 15-2], the concentration at half-maximal activity (AC50) was determined as 277 nM in test [1] and 888 nM in test [2].

In the case of `Cc1nc(C(N)=O)nn1-c1ccc(Cc2ccc(-c3ccc(C(=O)N4CCN(C)CC4)cc3)cc2)cc1` [Example 15-3], the AC50 is 60 nM in test [1] and 188 nM in test [2].

For the compound `Cc1nc(C(N)=O)nn1-c1ccc(Cc2ccc(-c3ccc(CN4CCCC4)cc3)cc2)cc1` [Example 15-4], the AC50 in test [1] was determined as 33 nM; in test [2] it was 99 nM.

Take `Cc1cc(C(N)=O)nn1-c1ccc(Cc2ccc(-c3ccc(CN4CCC[C@H]4CO)cc3)cc2)cc1` [Example 16-1, (S)-1-(4-((4′-((2-(hydroxymethyl)pyrrolidin-1-yl)methyl)-[1,1′-biphenyl]-4-yl)methyl)phenyl)-5-methyl-1H-pyrazole-3-carboxamide]: the results for the AC50 in test [1] and in test [2] were 33 nM and 90 nM, respectively.

`Cc1cc(C(N)=O)nn1-c1ccc(Cc2ccc(-c3ccc(CNCCO)cc3)cc2)cc1` [Example 16-2]: the AC50 in test [1] is 138 nM; in test [2] it was 426 nM.

As to `Cc1cc(C(N)=O)nn1-c1ccc(Cc2ccc(-c3ccc(CNC4CCC4)cc3)cc2)cc1` [Example 16-3], the values for the half-maximal activity concentration (AC50) in test [1] and in test [2] were 500 nM and 804 nM, respectively.

Take `Cc1cc(C(N)=O)nn1-c1ccc(Cc2ccc(-c3ccc(CNC4COC4)cc3)cc2)cc1` [Example 16-4]: the values for the AC50 in test [1] and in test [2] were 41 nM and 120 nM, respectively.

Regarding `Cc1cc(C(N)=O)nn1-c1ccc(Cc2ccc(-c3ccc(CN4CCCCC4)cc3)cc2)cc1` [Example 16-6], the AC50 was 103 nM in test [1] and 248 nM in test [2].

Consider `Cc1cc(C(N)=O)nn1-c1ccc(Cc2ccc(-c3ccc(CC4CCCN4CO)cc3)cc2)cc1` (stereo not shown) [Example 16-7], for which the AC50 in test [1] came out at 9 nM; in test [2] it was 24 nM.

On to `Cc1cc(C(N)=O)nn1-c1ccc(Cc2ccc(-c3ccc(CN4CCC4)cc3)cc2)cc1` [Example 16-8], for which the AC50 came to 117 nM in test [1] and 300 nM in test [2].

For `Cc1cc(C(N)=O)nn1-c1ccc(Cc2ccc(-c3ccc(S(=O)(=O)CCO)cc3)cc2)cc1` [Example 17, 1-(4-((4′-((2-hydroxyethyl)sulfonyl)-[1,1′-biphenyl]-4-yl)methyl)phenyl)-5-methyl-1H-pyrazole-3-carboxamide], the AC50 in test [1] was determined as 29 nM; in test [2], 101 nM.

For `Cc1cc(C(N)=O)nn1-c1ccc(Cc2ccc(-c3ccc(CN4CC(F)(F)C[C@@H]4CO)cc3)cc2)cc1` [Example 18, (R)-1-(4-((4′-((4,4-difluoro-2-(hydroxymethyl)pyrrolidin-1-yl)methyl)-[1,1′-biphenyl]-4-yl)methyl)phenyl)-5-methyl-1H-pyrazole-3-carboxamide], the half-maximal activity concentration (AC50) in test [1] amounted to 95 nM; in test [2], 394 nM.

As for `Cc1cc(C(N)=O)nn1-c1ccc(Cc2ccc(-c3ccc(C(C)(C)O)cn3)cc2)cc1` [Example 19, 1-(4-(4-(5-(2-hydroxypropan-2-yl)pyridin-2-yl)benzyl)phenyl)-5-methyl-1H-pyrazole-3-carboxamide], the values for the AC50 in test [1] and in test [2] were 71 nM and 209 nM, respectively.

Take `Cc1nc(-c2ccc(Cc3ccc(-n4nc(C(N)=O)cc4C)cc3)cc2)ccc1C(C)(C)O` [Example 20, 1-(4-(4-(5-(2-hydroxypropan-2-yl)-6-methylpyridin-2-yl)benzyl)phenyl)-5-methyl-1H-pyrazole-3-carboxamide]: the figures for the AC50 in test [1] and in test [2] were 91 nM and 208 nM, respectively.

In the case of `Cc1nc(C(N)=O)nn1-c1ccc(Cc2ccc(-c3ccc(C(C)(C)O)cn3)cc2)cc1` [Example 21, 1-(4-(4-(5-(2-hydroxypropan-2-yl)pyridin-2-yl)benzyl)phenyl)-5-methyl-1H-1,2,4-triazole-3-carboxamide], the concentration at half-maximal activity (AC50) was 155 nM in test [1] and 723 nM in test [2].

For `Cc1cc(C(N)=O)nn1-c1ccc(Cc2ccc(-c3ccc(C4(O)COC4)nc3)cc2)cc1` [Example 22, 1-(4-(4-(6-(3-hydroxyoxetan-3-yl)pyridin-3-yl)benzyl)phenyl)-5-methyl-1H-pyrazole-3-carboxamide], the AC50 in test [1] was 42 nM; in test [2] it was 187 nM.
